# Key:
# Type in all cases: in vivo
# [1] = tested on: Amaranthus retoflexus (AMARE); test: B1 Post-Emergence Efficacy - Test 1; details: 1000 g/ha, after 13 days, five point scale
# Summary of the method: (§1)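 Glasshouse post-emergence test: compound at 1000 g/ha sprayed on plants 8 days after sowing, controlled 24/16° C. day/night with 14 h light. Percentage damage read at 13 days, banded into five classes, 5 meaning 80-100%.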
# [2] = tested on: Echinochloa crus-galli (ECHCG); test: B1 Post-Emergence Efficacy - Test 1; details: 1000 g/ha, after 13 days, five point scale
# Summary of the method: as §1
# [3] = tested on: Ipomoea hederacea (IPOHE); test: B1 Post-Emergence Efficacy - Test 1; details: 1000 g/ha, after 13 days, five point scale
# Summary of the method: as §1
# Lolium perenne (LOLPE) [4] = test: B1 Post-Emergence Efficacy - Test 1; details: 1000 g/ha, after 13 days, five point scale
# Summary of the method: as §1
# Setaria faberi (SETFA) [5] = test: B1 Post-Emergence Efficacy - Test 1; details: 1000 g/ha, after 13 days, five point scale
# Summary of the method: as §1
# Solanum nigrum (SOLNI) = test: B1 Post-Emergence Efficacy - Test 1; details: 1000 g/ha, after 13 days, five point scale
# Summary of the method: as §1
# Bidens pilosa (BIDPI) = test: B2 Post-Emergence Efficacy - Test 2; details: 15 days after application, 0-100 scale
# Summary of the method: (§2)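 Pots of plants grown 12 days in a glasshouse (24/18 or 20/16 °C day/night, 16 h light, 65% humidity) were sprayed post-emergence with aqueous IF50-formulated compound plus 0.2% v/v Genapol X080. Damage scored 15 days after application on a 0–100 scale (0 = no damage, 100 = total kill).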
# [6] = tested on: Brachiaria plantaginea (BRAPL); test: B2 Post-Emergence Efficacy - Test 2; details: 15 days after application, 0=no damage, 100=total kill
# Summary of the method: as §2
# [7] = tested on: Digitaria sanguinalis (DIGSA); test: B2 Post-Emergence Efficacy - Test 2; details: 15 days after application, 0=no damage, 100=total kill
# Summary of the method: as §2
# Galium aparine (GALAP) = test: B2 Post-Emergence Efficacy - Test 2; details: 15 days after application, 0-100 scale
# Summary of the method: as §2
# Hordeum vulgare (HORVW) = test: B2 Post-Emergence Efficacy - Test 2; details: 15 days after application, 0-100 scale
# Summary of the method: as §2
# Kochia scoparia (KSHSC) = test: B2 Post-Emergence Efficacy - Test 2; details: 15 days after application, 0-100 scale
# Summary of the method: as §2
# Lolium perenne (LOLPE) [8] = test: B2 Post-Emergence Efficacy - Test 2; details: 15 days after application, 0-100 scale
# Summary of the method: as §2
# Orysa sativa (ORYSA) = test: B2 Post-Emergence Efficacy - Test 2; details: 15 days after application; for Herbicidal activity ORYSA: 0-100 scale; for Herbicidal activity on a 0-100 scale, ORYSA: 0=no damage, 100=total kill
# Summary of the method: as §2
# Setaria faberi (SETFA) [9] = test: B2 Post-Emergence Efficacy - Test 2; details: 15 days after application, 0=no damage, 100=total kill
# Summary of the method: as §2
# Sinapis arvensis (SINAR) = test: B2 Post-Emergence Efficacy - Test 2; details: 15 days after application, 0-100 scale
# Summary of the method: as §2
# Zea mays (ZEAMX) = test: B2 Post-Emergence Efficacy - Test 2; details: 15 days after application; for Herbicidal activity ZEAMX: 0-100 scale; for Herbicidal activity on a 0-100 scale, ZEAMX: 0=no damage, 100=total kill
# Summary of the method: as §2
structure (smiles),measurement,setting,value
"Cc1nn(C)c(=O)c(-c2c(F)ccc(Cl)c2CCc2ccc(Cl)cc2)c1OC(=O)C(C)C [Compound 1.089, [5-[3-chloro-2-[2-(4-chlorophenyl)ethyl]-6-fluoro-phenyl]-1,3-dimethyl-6-oxo-pyridazin-4-yl] 2-methylpropanoate]","percentage damage caused to the plant, AMARE",[1],5 (5=80-100%)
same,"percentage damage caused to the plant, ECHCG",[2],5 (5=80-100%)
same,"percentage damage caused to the plant, IPOHE",[3],5 (5=80-100%)
same,"percentage damage caused to the plant, LOLPE",Lolium perenne (LOLPE) [4],5 (5=80-100%)
same,"percentage damage caused to the plant, SETFA",Setaria faberi (SETFA) [5],5 (5=80-100%)
same,"percentage damage caused to the plant, SOLNI",Solanum nigrum (SOLNI),5 (5=80-100%)
same,Herbicidal activity BIDPI,Bidens pilosa (BIDPI); 15 g/Ha,70
same,Herbicidal activity BIDPI,Bidens pilosa (BIDPI); 30 g/Ha,60
same,Herbicidal activity BIDPI,Bidens pilosa (BIDPI); 60 g/Ha,70
same,Herbicidal activity BIDPI,Bidens pilosa (BIDPI); 125 g/Ha,80
same,Herbicidal activity BIDPI,Bidens pilosa (BIDPI); 250 g/Ha,80
same,Herbicidal activity BIDPI,Bidens pilosa (BIDPI); 500 g/Ha,100
same,"Herbicidal activity on a 0-100 scale, BRAPL",[6]; 15 g/Ha,80
same,"Herbicidal activity on a 0-100 scale, BRAPL",[6]; 30 g/Ha,90
same,"Herbicidal activity on a 0-100 scale, BRAPL",[6]; 250 g/Ha,90
same,"Herbicidal activity on a 0-100 scale, BRAPL",[6]; 500 g/Ha,90
same,"Herbicidal activity on a 0-100 scale, DIGSA",[7]; 15 g/Ha,0
same,"Herbicidal activity on a 0-100 scale, DIGSA",[7]; 30 g/Ha,0
same,"Herbicidal activity on a 0-100 scale, DIGSA",[7]; 60 g/Ha,0
same,"Herbicidal activity on a 0-100 scale, DIGSA",[7]; 125 g/Ha,10
same,"Herbicidal activity on a 0-100 scale, DIGSA",[7]; 250 g/Ha,40
same,"Herbicidal activity on a 0-100 scale, DIGSA",[7]; 500 g/Ha,30
same,Herbicidal activity GALAP,Galium aparine (GALAP); 15 g/Ha,10
same,Herbicidal activity GALAP,Galium aparine (GALAP); 30 g/Ha,20
same,Herbicidal activity GALAP,Galium aparine (GALAP); 125 g/Ha,30
same,Herbicidal activity GALAP,Galium aparine (GALAP); 250 g/Ha,30
same,Herbicidal activity GALAP,Galium aparine (GALAP); 500 g/Ha,90
same,Herbicidal activity HORVW,Hordeum vulgare (HORVW); 15 g/Ha,10
same,Herbicidal activity HORVW,Hordeum vulgare (HORVW); 30 g/Ha,10
same,Herbicidal activity HORVW,Hordeum vulgare (HORVW); 60 g/Ha,20
same,Herbicidal activity HORVW,Hordeum vulgare (HORVW); 125 g/Ha,20
same,Herbicidal activity HORVW,Hordeum vulgare (HORVW); 250 g/Ha,30
same,Herbicidal activity HORVW,Hordeum vulgare (HORVW); 500 g/Ha,60
same,Herbicidal activity KCHSC,Kochia scoparia (KSHSC); 15 g/Ha,10
same,Herbicidal activity KCHSC,Kochia scoparia (KSHSC); 30 g/Ha,20
same,Herbicidal activity KCHSC,Kochia scoparia (KSHSC); 60 g/Ha,50
same,Herbicidal activity KCHSC,Kochia scoparia (KSHSC); 125 g/Ha,60
same,Herbicidal activity KCHSC,Kochia scoparia (KSHSC); 250 g/Ha,60
same,Herbicidal activity KCHSC,Kochia scoparia (KSHSC); 500 g/Ha,60
same,Herbicidal activity LOLPE,Lolium perenne (LOLPE) [8]; 15 g/Ha,40
same,Herbicidal activity LOLPE,Lolium perenne (LOLPE) [8]; 30 g/Ha,70
same,Herbicidal activity LOLPE,Lolium perenne (LOLPE) [8]; 60 g/Ha,80
same,Herbicidal activity LOLPE,Lolium perenne (LOLPE) [8]; 125 g/Ha,90
same,Herbicidal activity LOLPE,Lolium perenne (LOLPE) [8]; 250 g/Ha,90
same,Herbicidal activity LOLPE,Lolium perenne (LOLPE) [8]; 500 g/Ha,90
same,Herbicidal activity ORYSA,Orysa sativa (ORYSA); 15 g/Ha,0
same,"Herbicidal activity on a 0-100 scale, ORYSA",Orysa sativa (ORYSA); 15 g/Ha,0
same,Herbicidal activity ORYSA,Orysa sativa (ORYSA); 30 g/Ha,0
same,"Herbicidal activity on a 0-100 scale, ORYSA",Orysa sativa (ORYSA); 30 g/Ha,0
same,Herbicidal activity ORYSA,Orysa sativa (ORYSA); 60 g/Ha,0
same,"Herbicidal activity on a 0-100 scale, ORYSA",Orysa sativa (ORYSA); 60 g/Ha,0
same,Herbicidal activity ORYSA,Orysa sativa (ORYSA); 125 g/Ha,10
same,"Herbicidal activity on a 0-100 scale, ORYSA",Orysa sativa (ORYSA); 125 g/Ha,10
same,Herbicidal activity ORYSA,Orysa sativa (ORYSA); 250 g/Ha,20
same,"Herbicidal activity on a 0-100 scale, ORYSA",Orysa sativa (ORYSA); 250 g/Ha,20
same,Herbicidal activity ORYSA,Orysa sativa (ORYSA); 500 g/Ha,50
same,"Herbicidal activity on a 0-100 scale, ORYSA",Orysa sativa (ORYSA); 500 g/Ha,50
same,"Herbicidal activity on a 0-100 scale, SETFA",Setaria faberi (SETFA) [9]; 15 g/Ha,0
same,"Herbicidal activity on a 0-100 scale, SETFA",Setaria faberi (SETFA) [9]; 30 g/Ha,20
same,"Herbicidal activity on a 0-100 scale, SETFA",Setaria faberi (SETFA) [9]; 60 g/Ha,30
same,"Herbicidal activity on a 0-100 scale, SETFA",Setaria faberi (SETFA) [9]; 125 g/Ha,60
same,"Herbicidal activity on a 0-100 scale, SETFA",Setaria faberi (SETFA) [9]; 250 g/Ha,60
same,"Herbicidal activity on a 0-100 scale, SETFA",Setaria faberi (SETFA) [9]; 500 g/Ha,80
same,Herbicidal activity SINAR,Sinapis arvensis (SINAR); 15 g/Ha,70
same,Herbicidal activity SINAR,Sinapis arvensis (SINAR); 30 g/Ha,80
same,Herbicidal activity SINAR,Sinapis arvensis (SINAR); 60 g/Ha,90
same,Herbicidal activity SINAR,Sinapis arvensis (SINAR); 125 g/Ha,90
same,Herbicidal activity SINAR,Sinapis arvensis (SINAR); 250 g/Ha,90
same,Herbicidal activity SINAR,Sinapis arvensis (SINAR); 500 g/Ha,90
same,Herbicidal activity ZEAMX,Zea mays (ZEAMX); 15 g/Ha,0
same,"Herbicidal activity on a 0-100 scale, ZEAMX",Zea mays (ZEAMX); 15 g/Ha,0
same,Herbicidal activity ZEAMX,Zea mays (ZEAMX); 30 g/Ha,20
same,"Herbicidal activity on a 0-100 scale, ZEAMX",Zea mays (ZEAMX); 30 g/Ha,20
same,Herbicidal activity ZEAMX,Zea mays (ZEAMX); 60 g/Ha,30
same,"Herbicidal activity on a 0-100 scale, ZEAMX",Zea mays (ZEAMX); 60 g/Ha,30
same,Herbicidal activity ZEAMX,Zea mays (ZEAMX); 125 g/Ha,30
same,"Herbicidal activity on a 0-100 scale, ZEAMX",Zea mays (ZEAMX); 125 g/Ha,30
same,Herbicidal activity ZEAMX,Zea mays (ZEAMX); 250 g/Ha,90
same,"Herbicidal activity on a 0-100 scale, ZEAMX",Zea mays (ZEAMX); 250 g/Ha,90
same,Herbicidal activity ZEAMX,Zea mays (ZEAMX); 500 g/Ha,100
same,"Herbicidal activity on a 0-100 scale, ZEAMX",Zea mays (ZEAMX); 500 g/Ha,100

# Reference: patent US20230301300A1, “HERBICIDAL COMPOSITIONS” (SYNGENTA CROP PROTECTION AG, priority 2020, published 2023)
